From patent US20250295798A1, “LIGAND-DRUG CONJUGATE OF EXATECAN ANALOGUE, AND MEDICAL USE THEREOF” (BeiGene Switzerland GmbH, priority 2022, published 2025)

Key:
A375 = test: Compounds cellular killing in A375; format: cell-based, human; details: for EC50 / Emax / Emax (%): A375, 6 days, Cell Titer-Glo; for potency compared with compound 1-A and 1-C: Table 18, A375 and Calu-6
Method: (§1) Seeding cells A375 (1E3/well) or Calu-6 (2E3/well) into 96-well plate (Greiner: 655090), 100 ul/well. Incubation at 37° C., 5% CO2, overnight.
(§2) Adding the fresh growth-medium containing the varying concentrations of compounds, 50 ul/well.
(§3) Incubation at 37° C., 5% CO2, 6 days.
(§4) The cell viability detected by Cell Titer-Glo (Promega, G7573). Add 70 µL/well of CellTiter-Glo® Reagent in each well.
(§5) Allow the plates to incubate at room temperature for 10 minutes to stabilize luminescent signal.
(§6) Analyze with Microplate Reader.
(§7) Seeding cells A375 ([…] or Calu-6 (2E3/well) into 96-well plate (Greiner: 655090), 100 ul/well. Incubation at 37° C., […], overnight.

Calu-6 = test: Compounds cellular killing in Calu-6; format: cell-based, human; details: Calu-6, 6 days, Cell Titer-Glo
Method: as §1, §2, §3, §4, §5, §6, §7

SMILES	EC50 (A375; Homo sapiens, A-375, […])	Emax (A375; Homo sapiens, A-375, […])	EC50 (Calu-6; Homo sapiens, Calu-6, […])	Emax (Calu-6; Homo sapiens, Calu-6, […])	further results
CC[C@@]1(O)C(=O)OCc2c1cc1n(c2=O)Cc2c-1nc1cc(F)c(C)c3c1c2[C@@H](NC(=O)C[C@H](O)CC#N)CC3 [Example 2-20, (R)-4-cyano-N-((1S,9S)-9-ethyl-5-fluoro-9-hydroxy-4-methyl-10,13-dioxo-2,3,9,10,13,15-hexahydro-1H,12H-benzo[de]pyrano[3′,4′:6,7]indolizino[1,2-b]quinolin-1-yl)-3-hydroxybutanamide]	18.5 nM	98%	5.6 nM	98.1%	–
CC[C@@]1(O)C(=O)OCc2c1cc1n(c2=O)Cc2c-1nc1cc(F)cc3c1c2[C@@H](NC(=O)C(C)(C)CO)CC3 [Example 2-43, N-((1S,9S)-9-ethyl-5-fluoro-9-hydroxy-10,13-dioxo-2,3,9,10,13,15-hexahydro-1H,12H-benzo[de]pyrano[3′,4′:6,7]indolizino[1,2-b]quinolin-1-yl)-3-hydroxy-2,2-dimethylpropanamide]	3.6 nM	100%	1.1 nM	99.2%	–
CC[C@@]1(O)C(=O)OCc2c1cc1n(c2=O)Cc2c-1nc1cc3c(c4c1c2[C@@H](N)CC4)OCO3 [Example 1-10, (1S,10S)-1-amino-10-ethyl-10-hydroxy-1,2,3,10,13,16-hexahydro-11H,14H-benzo[de][1,3]dioxolo[4,5-g]pyrano[3′,4′:6,7]indolizino[1,2-b]quinoline-11,14-dione]	–	–	–	97.7%	EC50 (A375; Homo sapiens, A-375): 0.4 nM; Emax (A375; Homo sapiens, A-375): 97.7%; EC50 (Calu-6; Homo sapiens): 0.3 nM
CC[C@@]1(O)C(=O)OCc2c1cc1n(c2=O)Cc2c-1nc1cc(F)c(C)c3c1c2[C@@H](NC(=O)c1ccc(CO)o1)CC3 [Example 2-19, N-((1S,9S)-9-ethyl-5-fluoro-9-hydroxy-4-methyl-10,13-dioxo-2,3,9,10,13,15-hexahydro-1H,12H-benzo[de]pyrano[3′,4′:6,7]indolizino[1,2-b]quinolin-1-yl)-5-(hydroxymethyl)furan-2-carboxamide]	–	–	–	99.3%	EC50 (A375; Homo sapiens, A-375): 4.6 nM; Emax (A375; Homo sapiens, A-375): 99.7%; EC50 (Calu-6; Homo sapiens): 1 nM
CC[C@@]1(O)C(=O)OCc2c1cc1n(c2=O)Cc2c-1nc1cc(Cl)c(C)c3c1c2[C@@H](NC(=O)C(C)(F)CO)CC3 (stereo partly drawn) [Example 2-58, N-((1S,9S)-5-chloro-9-ethyl-9-hydroxy-4-methyl-10,13-dioxo-2,3,9,10,13,15-hexahydro-1H,12H-benzo[de]pyrano[3′,4′:6,7]indolizino[1,2-b]quinolin-1-yl)-2-fluoro-3-hydroxy-2-methylpropanamide]	2.9 nM	99.9%	0.9 nM	98.8%	–
CC[C@@]1(O)C(=O)OCc2c1cc1n(c2=O)Cc2c-1nc1cc(F)c(C)c3c1c2C(CNCCO)CC3 (stereo partly drawn) [Example 2-53, Nbenzyl (9S)-9-ethyl-5-fluoro-9-hydroxy-1-(((2-hydroxyethyl)amino)methyl)-4-methyl-1,2,3,9,12,15-hexahydro-10H,13H-benzo[de]pyrano[3′,4′:6,7]indolizino[1,2-b]quinoline-10,13-dione]	5.1 nM	99.9%	1.6 nM	98.7%	–
CC[C@@]1(O)C(=O)OCc2c1cc1n(c2=O)Cc2c-1nc1cc(F)cc3c1c2[C@@H](N)CC3 [Example 1-22, (1S,9S)-1-amino-9-ethyl-5-fluoro-9-hydroxy-1,2,3,9,12,15-hexahydro-10H,13H-benzo[de]pyrano[3′,4′:6,7]indolizino[1,2-b]quinoline-10,13-dione methanesulfonate]	1.4 nM	100%	0.6 nM	99.2%	–
CC[C@@]1(O)C(=O)OCc2c1cc1n(c2=O)Cc2c-1nc1cc(F)c(C)c3c1c2[C@@H](NC(=O)[C@@H]1C[C@@H](O)CN1C(C)=O)CC3 [Example 2-17, (2S,4R)-1-acetyl-N-((1S,9S)-9-ethyl-5-fluoro-9-hydroxy-4-methyl-10,13-dioxo-2,3,9,10,13,15-hexahydro-1H,12H-benzo[de]pyrano[3′,4′:6,7]indolizino[1,2-b]quinolin-1-yl)-4-hydroxypyrrolidine-2-carboxamide]	123 nM	94.9%	44.9 nM	94.6%	–
CC[C@@]1(O)C(=O)OCc2c1cc1n(c2=O)Cc2c-1nc1cc(F)c(C)c3c1c2[C@@H](NC(=O)C1CCCC1O)CC3 (single isomer, unassigned) [Example 2-10]	–	–	–	–	EC50 (A375): 0.8 nM; Emax (%) (A375): 99.9%; EC50 (Calu-6): 0.2 nM; Emax (%) (Calu-6): 98.9%
CC[C@@]1(O)C(=O)OCc2c1cc1n(c2=O)Cc2c-1nc1cc(F)c(C)c3c1c2[C@@H](NC(=O)CO)CC3 [Example 1-A, reference compound]	2.2 nM	98.9%	1 nM	98.9%	–
CC[C@@]1(O)C(=O)OCc2c1cc1n(c2=O)Cc2c-1nc1cc3c(c4c1c2[C@@H](NC(=O)CO)CC4)OC(F)(F)O3 [Example 2-27, N-((1S,10S)-10-ethyl-5,5-difluoro-10-hydroxy-11,14-dioxo-2,3,10,11,14,16-hexahydro-1H,13H-benzo[de][1,3]dioxolo[4,5-g]pyrano[3′,4′:6,7]indolizino[1,2-b]quinolin-1-yl)-2-hydroxyacetamide]	10.7 nM	99.5%	3.9 nM	99.5%	–
CC[C@@]1(O)C(=O)OCc2c1cc1n(c2=O)Cc2c-1nc1cc(Cl)c(C)c3c1c2[C@@H](NC(=O)C(C)(C)CO)CC3 [Example 2-8, N-((1S,9S)-5-chloro-9-ethyl-9-hydroxy-4-methyl-10,13-dioxo-2,3,9,10,13,15-hexahydro-1H,12H-benzo[de]pyrano[3′,4′:6,7]indolizino[1,2-b]quinolin-1-yl)-3-hydroxy-2,2-dimethylpropanamide]	1.2 nM	98.6%	0.4 nM	99.3%	–
CC[C@@]1(O)C(=O)OCc2c1cc1n(c2=O)Cc2c-1nc1cc(F)c(C)c3c1c2C(C(=O)N1CCC1CO)CC3 (stereo partly drawn) [Example 2-47, (9S)-9-ethyl-5-fluoro-9-hydroxy-1-(2-(hydroxymethyl)azetidine-1-carbonyl)-4-methyl-1,2,3,9,12,15-hexahydro-10H,13H-benzo[de]pyrano[3′,4′:6,7]indolizino[1,2-b]quinoline-10,13-dione]	6.7 nM	99.7%	1.8 nM	99.5%	–
CC[C@@]1(O)C(=O)OCc2c1cc1n(c2=O)Cc2c-1nc1cc(F)c(C)c3c1c2C(C(=O)NCCO)CC3 (single isomer, unassigned) [Example 2-52]	16.1 nM	98.9%	6 nM	97.3%	–
CC[C@@]1(O)C(=O)OCc2c1cc1n(c2=O)Cc2c-1nc1cc(F)c(C)c3c1c2[C@@H](NC(=O)OCCO)CC3 [Example 2-6, 2-hydroxyethyl ((1S,9S)-9-ethyl-5-fluoro-9-hydroxy-4-methyl-10,13-dioxo-2,3,9,10,13,15-hexahydro-1H,12H-benzo[de]pyrano[3′,4′:6,7]indolizino[1,2-b]quinolin-1-yl)carbamate]	–	–	–	96.9%	EC50 (A375; Homo sapiens, A-375): 1.4 nM; Emax (A375; Homo sapiens, A-375): 99.9%; EC50 (Calu-6; Homo sapiens): 0.3 nM
CC[C@@]1(O)C(=O)OCc2c1cc1n(c2=O)Cc2c-1nc1cc(F)c(C)c3c1c2C(CCCO)CC3 (stereo partly drawn) [Example 2-14, (9S)-9-ethyl-5-fluoro-9-hydroxy-1-(3-hydroxypropyl)-4-methyl-1,2,3,9,12,15-hexahydro-10H,13H-benzo[de]pyrano[3′,4′:6,7]indolizino[1,2-b]quinoline-10,13-dione]	–	–	–	99%	EC50 (A375; Homo sapiens, A-375): 0.3 nM; Emax (A375; Homo sapiens, A-375): 100%; EC50 (Calu-6; Homo sapiens): 0.1 nM
CC[C@@]1(O)C(=O)OCc2c1cc1n(c2=O)Cc2c-1nc1cc3c(c4c1c2C(CCCO)CC4)OCO3 (single isomer, unassigned) [Example 2-60]	–	–	–	–	EC50 (A375): 0.8 nM; Emax (%) (A375): 100.0%; potency compared with compound 1-A and 1-C (A375): higher potency than compound 1-A and 1-C; EC50 (Calu-6): 0.2 nM; Emax (%) (Calu-6): 98.2%
CC[C@@]1(O)C(=O)OCc2c1cc1n(c2=O)Cc2c-1nc1ccc(F)c3c1c2[C@@H](N)CC3 [Example 1-12, (1S,9S)-1-amino-9-ethyl-4-fluoro-9-hydroxy-1,2,3,9,12,15-hexahydro-10H,13H-benzo[de]pyrano[3′,4′:6,7]indolizino[1,2-b]quinoline-10,13-dione]	5.5 nM	99.8%	2.1 nM	99.5%	–
CC[C@@]1(O)C(=O)OCc2c1cc1n(c2=O)Cc2c-1nc1cc(F)c(C)c3c1c2[C@@H](NC(=O)C[C@@H](O)C[N+](C)(C)C)CC3 [Example 2-15, (R)-4-(((1S,9S)-9-ethyl-5-fluoro-9-hydroxy-4-methyl-10,13-dioxo-2,3,9,10,13,15-hexahydro-1H,12H-benzo[de]pyrano[3′,4′:6,7]indolizino[1,2-b]quinolin-1-yl)amino)-2-hydroxy-N,N,N-trimethyl-4-oxobutan-1-aminium]	442 nM	73.5%	179 nM	90.1%	–
CC[C@@]1(O)C(=O)OCc2c1cc1n(c2=O)Cc2c-1nc1cc3c(c4c1c2C(CCCO)CC4)OCO3 (single isomer, unassigned) [Example 2-59]	–	–	–	98.4%	EC50 (A375; Homo sapiens, A-375): 0.8 nM; Emax (A375; Homo sapiens, A-375): 100%; potency compared with compound 1-A and 1-C (A375): higher potency than compound 1-A and 1-C; EC50 (Calu-6; Homo sapiens): 0.2 nM
